The source of these data is patent US20060159666A1, “Method of potentiating inflammatory and immune modulation for cell and drug therapy” (priority 2004, published 2006).

The test system of test [1] is HUCBCs. As to the kind of experiment: 96-Chemotx migration assay of HUCBCs to recombinant chemoattractants. Format: cell-based, human. The following applies: MCP-1 5-30 ng/mL, IL-3 1-10 ng/mL, TPO 10-40 ng/mL; 4 hr; ATP luminescence. As for the experimental part: HUCBCs were prepared as described above and cultured for 24 hr before use. The 96-Chemotx chambers (NeuroProbe, Gaithersburg, Md.) were used for the migration assays. The chamber is a 96-well plate consisting of bottom wells to hold the unknowns or chemoattractant and a top plate, which is a polycarbonate membrane with 5 μm pore size. […] All were pipetted (300 μL) directly into the bottom wells, in triplicate, after which the top plate was securely attached. The HUCBCs were pipetted directly into each top well at a concentration of 62,000 cells per 25 μL. The migration chambers were then placed in a cell culture incubator at 37° C. with 5% CO2 for 4 hr. The top plates were removed and the bottom plates were then centrifuged (300 rpm for 10 min) to force cells to the bottom. Half the medium (150 μL) was then removed and a cell viability assay (CellTiter-Glo Kit, Promega), which is based on the ability of live cells to incorporate adenosine triphosphate (ATP), was used to determine the numbers of cells that had migrated. The migration plate was read in an automated plate reader (BioTek) set to the appropriate luminescence.

Test [2] concerns HUCBCs. As to the kind of experiment: 96-Chemotx migration assay of HUCBCs to MCAO brain tissue extracts. The format is cell-based, human. The settings on record: positive control; 4 hours. The text has this: In determining the time course of HUCBC migration into brain after a stroke, an ex vivo experimental approach was employed. Male Sprague Dawley rats under a permanent middle cerebral artery occlusion (MCAO); a nylon filament was threaded through the internal carotid artery to the origin of the MCA and permanently ligated in place. At 4, 6, 12, 24, 48, 72 hrs and 1 week after ischemia the animals were euthanized and the brains removed within two min, immediately flash-frozen and then stored at −80° C. until needed. The frozen brains were semi-thawed and kept cold. The striatum, hippocampus, and the cortex were dissected from the sides both ipsilateral and contralateral to the occlusion. The same dissections were performed for sham surgery and normal rats. Tissue from each of the conditions were pooled, and kept on ice in clear Dulbecco's modified Eagle's medium (DMEM, Invitrogen, Carlsbad, Calif.). […]
The cryopreserved HUCBCs were thawed and transferred into clear DMEM with 5% FBS and 1 μL/1 mL of Gentamicin (Sigma, St. Louis). […] Cord blood cells were then plated in low adherence 6 well culture dishes (Corning, Corning, N.Y.) for 24 hrs in a water jacket incubator set at 37° C. and with 5% CO2 After 24 hrs cells were lifted by gentle pipetting, placed in a 15 mL tube, centrifuged, resuspended in 1 mL of media without FBS, and viability assessed using the trypan blue dye exclusion method. […]

In test [3] the test system is HUCBCs. The test is described as follows: Human cytokine antibody array of HUCBC conditioned medium. Format: cell-based. The settings on record: Ex Vivo 10 medium; IL-3 5 ng/mL or TPO 25 ng/mL for 5 d; 42-cytokine array.
Description: The mononuclear fraction of the HUCBCs was obtained from Saneron CCEL Therapeutics, Inc. (Oldsmar, Fla.). Frozen samples were thawed in 10 mL of DMEM (Gibco), supplemented with 5% fetal bone serum (FBS, Gibco) and gentamicin (50 μg/mL, Sigma), or with Ex Vivo 10 media with gentamicin (50 μg/mL, Sigma). After centrifugation for 10 min at 200 rpm, the supernatant was removed and the cells were resuspended in 1 mL of the same medium. The viability of all samples ranged from 73% to 95% as determined by the ability to exclude trypan blue dye. Cells were then cultured for 3 to 14 d for cytokine arrays and ELISA assays; cells cultured in Ex Vivo 10 media were further stimulated with IL-3, TPO or both.
In order to address this, we used human cytokine arrays to establish whether the HUCBCs secreted these proteins. To determine the cytokines that HUCBCs released during culture, we used a TranSignal human cytokine antibody array (Panomics, Inc., Redwood City, Calif.), which simultaneously profiles either 23 (Array 1.0) or 42 (Array 3.0) cytokines/assay at the protein level. First, we examined whether cytokine production increased as a function of seeding density. The HUCBC were cultured at concentrations of 5, 10, or 30×10^6 per 5 mL of serum free DMEM with Gentamicin (50 μg/mL) for 3 d. […]

As to “MCP-1: human recombinant MCP-1 used as chemoattractant”, the “HUCBC migration to chemoattractant compared to controls (DMEM and PBS)” value with HUCBCs [1] is “Significantly more HUCBCs migrated”.

Regarding “SDF-1: Stromal derived factor 1, chemoattractant used as positive control”, in the test with HUCBCs [2], the “HUCBC migration to SDF-1 chemoattractant compared to all other conditions” value is “Significantly more HUCBCs”.

As for “TPO: thrombopoietin, factor known to stimulate hematopoietic cells”, the “HUCBC migration to chemoattractant compared to controls (DMEM and PBS)” value in the test with HUCBCs [1] was “Significantly more HUCBCs migrated”. Moreover, the “cytokine release from HUCBCs after stimulation” value in the test with HUCBCs [3] is reported as “a somewhat different profile of protein release”.
